Assays:
[1] = system: Staphylococcus aureus; assay: Antibacterial activity against […] Staphylococcus aureus ATCC 25923 after 20 to 24 hrs by two-fold microdilution method; assay type: functional
[2] = system: Staphylococcus haemolyticus; assay: Antibacterial activity against Staphylococcus haemolyticus CICC 10373 after 20 to 24 hrs by two-fold microdilution method; assay type: functional
[3] = system: Staphylococcus epidermidis; assay: Antibacterial activity against Staphylococcus epidermidis ATCC 12228 after 20 to 24 hrs by two-fold microdilution method; assay type: functional
[4] = system: Enterococcus faecalis; assay: Antibacterial activity against Enterococcus faecalis ATCC 29212 after 20 to 24 hrs by two-fold microdilution method; assay type: functional
[5] = system: Staphylococcus aureus; assay: Antibacterial activity against methicillin-resistant Staphylococcus aureus 122045 clinical isolate after 20 to 24 hrs by two-fold microdilution method; assay type: functional
[6] = system: Staphylococcus aureus; assay: Antibacterial activity against methicillin-resistant Staphylococcus aureus 212014 clinical isolate after 20 to 24 hrs by two-fold microdilution method; assay type: functional
[7] = system: Staphylococcus aureus; assay: Antibacterial activity against methicillin-resistant Staphylococcus aureus 214026 clinical isolate after 20 to 24 hrs by two-fold microdilution method; assay type: functional
[8] = system: Staphylococcus aureus; assay: Antibacterial activity against methicillin-resistant Staphylococcus aureus clinical isolate after 20 to 24 hrs by two-fold microdilution method; assay type: functional
[9] = system: Staphylococcus aureus; assay: Antibacterial activity against methicillin-resistant Staphylococcus aureus 110414 clinical isolate after 20 to 24 hrs by two-fold microdilution method; assay type: functional
[10] = system: Staphylococcus aureus; assay: Antibacterial activity against methicillin-resistant Staphylococcus aureus 10281-2 clinical isolate after 20 to 24 hrs by two-fold microdilution method; assay type: functional
[11] = system: Staphylococcus aureus; assay: Antibacterial activity against methicillin-resistant Staphylococcus aureus GLH14 clinical isolate after 20 to 24 hrs by two-fold microdilution method; assay type: functional
[12] = system: Staphylococcus aureus; assay: Antibacterial activity against methicillin-resistant Staphylococcus aureus GLH15 clinical isolate after 20 to 24 hrs by two-fold microdilution method; assay type: functional
[13] = system: Staphylococcus aureus; assay: Antibacterial activity against methicillin-resistant Staphylococcus aureus 122710-2 clinical isolate after 20 to 24 hrs by two-fold microdilution method; assay type: functional
[14] = system: Staphylococcus aureus; assay: Antibacterial activity against methicillin-resistant Staphylococcus aureus 122820-2 clinical isolate after 20 to 24 hrs by two-fold microdilution method; assay type: functional
[15] = system: Staphylococcus aureus; assay: Antibacterial activity against methicillin-resistant Staphylococcus aureus 123152 clinical isolate after 20 to 24 hrs by two-fold microdilution method; assay type: functional
[16] = system: Staphylococcus aureus; assay: Antibacterial activity against methicillin-resistant Staphylococcus aureus 12308 clinical isolate after 20 to 24 hrs by two-fold microdilution method; assay type: functional
[17] = system: Staphylococcus aureus; assay: Antibacterial activity against methicillin-resistant Staphylococcus aureus 130031 clinical isolate after 20 to 24 hrs by two-fold microdilution method; assay type: functional
[18] = system: Staphylococcus aureus; assay: Antibacterial activity against methicillin-resistant Staphylococcus aureus 221022 clinical isolate after 20 to 24 hrs by two-fold microdilution method; assay type: functional
[19] = system: Staphylococcus aureus; assay: Antibacterial activity against methicillin-resistant Staphylococcus aureus 221014 clinical isolate after 20 to 24 hrs by two-fold microdilution method; assay type: functional
[20] = system: Staphylococcus aureus; assay: Antibacterial activity against methicillin-resistant Staphylococcus aureus 224001 clinical isolate after 20 to 24 hrs by two-fold microdilution method; assay type: functional
[21] = system: Staphylococcus aureus; assay: Antibacterial activity against methicillin-resistant Staphylococcus aureus 316038 clinical isolate after 20 to 24 hrs by two-fold microdilution method; assay type: functional
[22] = system: Staphylococcus aureus; assay: Antibacterial activity against methicillin-resistant Staphylococcus aureus 316031 clinical isolate after 20 to 24 hrs by two-fold microdilution method; assay type: functional
[23] = system: Staphylococcus aureus; assay: Antibacterial activity against methicillin-resistant Staphylococcus aureus 3250299 clinical isolate after 20 to 24 hrs by two-fold microdilution method; assay type: functional
[24] = system: Staphylococcus aureus; assay: Antibacterial activity against methicillin-resistant Staphylococcus aureus 502025 clinical isolate after 20 to 24 hrs by two-fold microdilution method; assay type: functional
[25] = system: Staphylococcus aureus; assay: Antibacterial activity against methicillin-resistant Staphylococcus aureus 518036 clinical isolate after 20 to 24 hrs by two-fold microdilution method; assay type: functional
[26] = system: Staphylococcus aureus; assay: Antibacterial activity against methicillin-resistant Staphylococcus aureus 519030 clinical isolate after 20 to 24 hrs by two-fold microdilution method; assay type: functional
[27] = system: Staphylococcus aureus; assay: Antibacterial activity against methicillin-resistant Staphylococcus aureus 530231 clinical isolate after 20 to 24 hrs by two-fold microdilution method; assay type: functional
[28] = system: Staphylococcus aureus; assay: Antibacterial activity against methicillin-resistant Staphylococcus aureus 531026 clinical isolate after 20 to 24 hrs by two-fold microdilution method; assay type: functional
[29] = system: Staphylococcus aureus; assay: Antibacterial activity against methicillin-resistant Staphylococcus aureus 614019 clinical isolate after 20 to 24 hrs by two-fold microdilution method; assay type: functional
[30] = system: Staphylococcus aureus; assay: Antibacterial activity against methicillin-resistant Staphylococcus aureus 1012029 clinical isolate after 20 to 24 hrs by two-fold microdilution method; assay type: functional
[31] = system: Staphylococcus aureus; assay: Antibacterial activity against methicillin-resistant Staphylococcus aureus 503025 clinical isolate after 20 to 24 hrs by two-fold microdilution method; assay type: functional
[32] = system: Staphylococcus aureus; assay: Antibacterial activity against methicillin-resistant Staphylococcus aureus 908046 clinical isolate after 20 to 24 hrs by two-fold microdilution method; assay type: functional
[33] = system: Staphylococcus aureus; assay: Antibacterial activity against methicillin-resistant Staphylococcus aureus 912014 clinical isolate after 20 to 24 hrs by two-fold microdilution method; assay type: functional
[34] = system: Staphylococcus aureus; assay: Antibacterial activity against methicillin-resistant Staphylococcus aureus 1023043 clinical isolate after 20 to 24 hrs by two-fold microdilution method; assay type: functional
[35] = system: Staphylococcus aureus; assay: Antibacterial activity against methicillin-resistant Staphylococcus aureus 1024010 clinical isolate after 20 to 24 hrs by two-fold microdilution method; assay type: functional
[36] = system: Staphylococcus aureus; assay: Antibacterial activity against methicillin-resistant Staphylococcus aureus 1024004-2 clinical isolate after 20 to 24 hrs by two-fold microdilution method; assay type: functional
[37] = system: Staphylococcus aureus; assay: Antibacterial activity against methicillin-resistant Staphylococcus aureus 1026211 clinical isolate after 20 to 24 hrs by two-fold microdilution method; assay type: functional
[38] = system: Staphylococcus aureus; assay: Antibacterial activity against methicillin-resistant Staphylococcus aureus 1103006 clinical isolate after 20 to 24 hrs by two-fold microdilution method; assay type: functional
[39] = system: Staphylococcus aureus; assay: Antibacterial activity against methicillin-resistant Staphylococcus aureus 1106003 clinical isolate after 20 to 24 hrs by two-fold microdilution method; assay type: functional
[40] = system: Staphylococcus aureus; assay: Antibacterial activity against methicillin-resistant Staphylococcus aureus 1108204 clinical isolate after 20 to 24 hrs by two-fold microdilution method; assay type: functional
[41] = system: Staphylococcus aureus; assay: Antibacterial activity against methicillin-resistant Staphylococcus aureus 1207026 clinical isolate after 20 to 24 hrs by two-fold microdilution method; assay type: functional
[42] = system: Staphylococcus aureus; assay: Antibacterial activity against methicillin-resistant Staphylococcus aureus 1212057-1 clinical isolate after 20 to 24 hrs by two-fold microdilution method; assay type: functional
[43] = system: Staphylococcus aureus; assay: Antibacterial activity against methicillin-resistant Staphylococcus aureus 10844 clinical isolate after 20 to 24 hrs by two-fold microdilution method; assay type: functional
[44] = system: Staphylococcus aureus; assay: Antibacterial activity against methicillin-resistant Staphylococcus aureus 109244 clinical isolate after 20 to 24 hrs by two-fold microdilution method; assay type: functional
[45] = system: Staphylococcus aureus; assay: Antibacterial activity against methicillin-resistant Staphylococcus aureus 112047 clinical isolate after 20 to 24 hrs by two-fold microdilution method; assay type: functional
[46] = system: Staphylococcus aureus; assay: Antibacterial activity against methicillin-resistant Staphylococcus aureus 125025 clinical isolate after 20 to 24 hrs by two-fold microdilution method; assay type: functional
[47] = Solubility of the compound in water at 25 degC measured after shaking for 4 hrs by UV method; assay type: physicochemical

CN1CCN(CCCCCCOC(=O)c2c3c(n4cc(Br)ccc24)C(=O)c2ncccc2C3=O)CC1
0.031 µg/mL: MIC [7] | MIC [33] | MIC [42]
≤ 0.0078 µg/mL: MIC [1] | MIC [3] | MIC [10] | MIC [37] | MIC [43] | MIC [46]
> 16 µg/mL: MIC [38] | MIC [39]
0.25 µg/mL: MIC [4] | MIC [6] | MIC [15] | MIC [17] | MIC [22] | MIC [24] | MIC [31] | MIC [36] | MIC [45]
0.125 µg/mL: MIC50 [8] | MIC [9] | MIC [12] | MIC [18] | MIC [19] | MIC [25] | MIC [29] | MIC [34] | MIC [35] | MIC [44]
0.063 µg/mL: MIC [2] | MIC [5] | MIC [11] | MIC [13] | MIC [14] | MIC [16] | MIC [21] | MIC [23] | MIC [32] | MIC [41]
0.5 µg/mL: MIC90 [8] | MIC [20] | MIC [26] | MIC [27] | MIC [40]
2060 µg/mL: solubility thermodynamic at 4 h ([47]; water)
0.016 µg/mL: MIC [30]
1 µg/mL: MIC [28]

CN(C)CCCCCOC(=O)c1c2c(n3cc(Br)ccc13)C(=O)c1ncccc1C2=O
0.063 µg/mL: MIC [6] | MIC [32] | MIC [37]
0.125 µg/mL: MIC [4] | MIC [7] | MIC [14] | MIC [16] | MIC [29] | MIC [40] | MIC [41] | MIC [42] | MIC [45]
≤ 0.0078 µg/mL: MIC [1] | MIC [3]
0.25 µg/mL: MIC [2] | MIC [5] | MIC50 [8] | MIC [10] | MIC [12] | MIC [13] | MIC [15] | MIC [21] | MIC [23] | MIC [25] | MIC [27] | MIC [30] | MIC [34] | MIC [35] | MIC [43]
Insoluble: solubility ([47]; buffer, 4 h)
16 µg/mL: MIC [38] | MIC [39]
0.5 µg/mL: MIC90 [8] | MIC [9] | MIC [11] | MIC [17] | MIC [18] | MIC [19] | MIC [20] | MIC [22] | MIC [24] | MIC [26] | MIC [28] | MIC [31] | MIC [33] | MIC [36] | MIC [44] | MIC [46]
